{"source": "patent US20240299385A1", "about": "(ReWind Therapeutics NV, priority 2021, published 2024)", "data": [{"target": "T1, human GPR17 receptor (Homo sapiens, UniProt Q13304)", "T1 construct": "host or cells: HEK-293", "T1 sequence (Q13304 whole entry)": "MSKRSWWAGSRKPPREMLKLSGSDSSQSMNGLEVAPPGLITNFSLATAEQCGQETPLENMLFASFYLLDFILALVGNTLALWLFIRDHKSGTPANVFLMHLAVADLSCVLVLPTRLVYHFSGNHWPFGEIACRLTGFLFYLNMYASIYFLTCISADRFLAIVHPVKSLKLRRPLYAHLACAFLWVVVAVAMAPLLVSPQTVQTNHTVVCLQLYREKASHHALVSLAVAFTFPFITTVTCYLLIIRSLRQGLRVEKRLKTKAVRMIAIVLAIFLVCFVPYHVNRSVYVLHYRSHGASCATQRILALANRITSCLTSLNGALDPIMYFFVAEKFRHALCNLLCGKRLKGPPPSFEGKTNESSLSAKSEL", "assay": "Calcium mobilization functional assay (Fluo-8, FLIPR TETRA) in HEK-293 hGPR17 (Gα-q assay)", "type": "cell-based", "details": "antagonism of MDL29,951 (~EC80) induced Ca2+ signal; cell line (HEK-293 hGPR17 or HEK-293 Suchi5 hGPR17) not given", "summary_of_the_method": "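Fluo-8-loaded HEK-293 hGPR17 cells (60 min dye loading, room temperature) were preincubated with compound for twenty minutes, then challenged with agonist MDL29,951 at ~EC80, 500 nM. Intracellular calcium release via Gα-q was recorded as FLIPR fluorescence for a further 2 minutes; compounds tested in duplicate.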", "units": {"IC50": "µM"}, "values": [{"smiles": "N#Cc1ccc(NS(=O)(=O)c2c[nH]cc2Cc2ccc(OC(F)(F)F)cc2)c(F)c1", "note": "[Cpd 389, N-(4-cyano-2-fluorophenyl)-4-[[4-(trifluoromethoxy)phenyl]methyl]-1H-pyrrole-3-sulfonamide]", "IC50": "5 to 50"}, {"smiles": "N#Cc1ccc(NS(=O)(=O)c2c[nH]c(-c3cc(F)cc(Cl)c3)c2)c(F)c1", "note": "[Cpd 316, 5-(3-chloro-5-fluoro-phenyl)-N-(4-cyano-2-fluoro-phenyl)-1H-pyrrole-3-sulfonamide]", "IC50": "0.5 to 5"}, {"smiles": "N#Cc1cc(F)c(NS(=O)(=O)c2c[nH]c(-c3cc(Cl)c(F)cc3F)c2)cc1F", "note": "[Cpd 456, 5-(5-chloro-2,4-difluorophenyl)-N-(4-cyano-2,5-difluorophenyl)-1H-pyrrole-3-sulfonamide]", "IC50": "< 0.5"}, {"smiles": "COCc1cccc(Cc2c[nH]cc2S(=O)(=O)Nc2ccc(C#N)cc2F)c1", "note": "[Cpd 368, N-(4-cyano-2-fluoro-phenyl)-4-[[3-(methoxymethyl)phenyl]methyl]-1H-pyrrole-3-sulfonamide]", "IC50": "0.5 to 5"}, {"smiles": "O=S(=O)(Nc1cc(F)c(Br)cc1F)c1c[nH]c(-c2cccs2)c1", "note": "[Cpd 478, N-(4-bromo-2,5-difluorophenyl)-5-(thiophen-2-yl)-1H-pyrrole-3-sulfonamide]", "IC50": "< 0.5"}, {"smiles": "O=S(=O)(Nc1ccc(C(F)(F)F)c(F)c1)c1c[nH]c(-c2ccccn2)c1", "note": "[Cpd 190, N-[3-fluoro-4-(trifluoromethyl)phenyl]-5-(2-pyridyl)-1H-pyrrole-3-sulfonamide]", "IC50": "0.5 to 5"}, {"smiles": "Cc1cccc(-c2cc(S(=O)(=O)Nc3cc(F)c(C(F)(F)F)cc3F)c[nH]2)c1F", "note": "[Cpd 319, N-[2,5-difluoro-4-(trifluoromethyl)phenyl]-5-(2-fluoro-3-methyl-phenyl)-1H-pyrrole-3-sulfonamide]", "IC50": "0.5 to 5"}, {"smiles": "N#Cc1cc(F)c(NS(=O)(=O)c2c[nH]c(-c3coc4ccccc34)c2)cc1F", "note": "[Cpd 651, 5-(1-benzofuran-3-yl)-N-(4-cyano-2,5-difluorophenyl)-1H-pyrrole-3-sulfonamide]", "IC50": "< 0.5"}, {"smiles": "O=S(=O)(Nc1cc(F)c(OC(F)F)cc1F)c1c[nH]c(-c2ccsn2)c1", "note": "[Cpd 635, N-[4-(difluoromethoxy)-2,5-difluorophenyl]-5-(1,2-thiazol-3-yl)-1H-pyrrole-3-sulfonamide]", "IC50": "< 0.5"}, {"smiles": "Cc1ccc(Cc2c[nH]cc2S(=O)(=O)Nc2ccc(C#N)cc2F)s1", "note": "[Cpd 486, N-(4-cyano-2-fluorophenyl)-4-[(5-methylthiophen-2-yl)methyl]-1H-pyrrole-3-sulfonamide]", "IC50": "0.5 to 5"}, {"smiles": "O=S(=O)(Nc1cc(F)c(C(F)(F)F)cc1F)c1c[nH]c(-c2c(F)cccc2F)c1", "note": "[Cpd 119, 5-(2,6-difluorophenyl)-N-[2,5-difluoro-4-(trifluoromethyl)phenyl]-1H-pyrrole-3-sulfonamide]", "IC50": "< 0.5"}, {"smiles": "N#Cc1ccc(NS(=O)(=O)c2c[nH]cc2-c2cccc(C3CC3)c2)c(F)c1", "note": "[Cpd 402, N-(4-cyano-2-fluorophenyl)-4-(3-cyclopropylphenyl)-1H-pyrrole-3-sulfonamide]", "IC50": "5 to 50"}, {"smiles": "O=S(=O)(Nc1cc(F)c(C(F)(F)F)cc1F)c1c[nH]c(-c2cc(Cl)ccc2F)c1", "note": "[Cpd 320, 5-(5-chloro-2-fluoro-phenyl)-N-[2,5-difluoro-4-(trifluoromethyl)phenyl]-1H-pyrrole-3-sulfonamide]", "IC50": "0.5 to 5"}, {"smiles": "N#Cc1ccc(NS(=O)(=O)c2c[nH]cc2Cc2ccc(F)cc2)c(F)c1", "note": "[Cpd 177, N-(4-cyano-2-fluoro-phenyl)-4-[(4-fluorophenyl)methyl]-1H-pyrrole-3-sulfonamide]", "IC50": "< 0.5"}, {"smiles": "N#Cc1ccc(NS(=O)(=O)c2c[nH]cc2Cc2cccc(OC(F)F)c2)c(F)c1", "note": "[Cpd 309, N-(4-cyano-2-fluoro-phenyl)-4-[[3-(difluoromethoxy)phenyl]methyl]-1H-pyrrole-3-sulfonamide]", "IC50": "< 0.5"}, {"smiles": "COc1ccc(-c2cc(S(=O)(=O)Nc3ccc(C#N)cc3F)c[nH]2)c(F)c1", "note": "[Cpd 086, N-(4-cyano-2-fluoro-phenyl)-5-(2-fluoro-4-methoxy-phenyl)-1H-pyrrole-3-sulfonamide]", "IC50": "0.5 to 5"}, {"smiles": "O=S(=O)(Nc1ncc(Cl)cc1F)c1c[nH]cc1Cc1ccccc1", "note": "[Cpd 192, 4-benzyl-N-(5-chloro-3-fluoro-2-pyridyl)-1H-pyrrole-3-sulfonamide]", "IC50": "5 to 50"}, {"smiles": "O=S(=O)(Nc1cccc(F)c1)c1c[nH]c(-c2ccccn2)c1", "note": "[Cpd 125, N-(3-fluorophenyl)-5-(2-pyridyl)-1H-pyrrole-3-sulfonamide]", "IC50": "5 to 50"}, {"smiles": "O=S(=O)(Nc1cc(F)c(Br)cc1F)c1c[nH]c(-c2ccc(F)cc2)c1", "note": "[Cpd 446, N-(4-bromo-2,5-difluorophenyl)-5-(4-fluorophenyl)-1H-pyrrole-3-sulfonamide]", "IC50": "0.5 to 5"}, {"smiles": "COc1nc(Cl)c(F)cc1NS(=O)(=O)c1c[nH]c(-c2ccccc2)c1", "note": "[Cpd 422, N-(6-chloro-5-fluoro-2-methoxypyridin-3-yl)-5-phenyl-1H-pyrrole-3-sulfonamide]", "IC50": "< 0.5"}, {"smiles": "O=S(=O)(Nc1ccc(C(F)(F)F)cc1F)c1c[nH]c(-c2ccccc2F)c1", "note": "[Cpd 055, 5-(2-fluorophenyl)-N-[2-fluoro-4-(trifluoromethyl)phenyl]-1H-pyrrole-3-sulfonamide]", "IC50": "0.5 to 5"}, {"smiles": "O=S(=O)(Nc1cc(F)c(C(F)(F)F)cc1F)c1c[nH]c(-c2ncccc2Cl)c1", "note": "[Cpd 204, 5-(3-chloro-2-pyridyl)-N-[2,5-difluoro-4-(trifluoromethyl)phenyl]-1H-pyrrole-3-sulfonamide]", "IC50": "< 0.5"}, {"smiles": "Cc1nc(C(F)(F)F)ccc1NS(=O)(=O)c1c[nH]c(-c2ccccc2)c1", "note": "[Cpd 135, N-[2-methyl-6-(trifluoromethyl)-3-pyridyl]-5-phenyl-1H-pyrrole-3-sulfonamide]", "IC50": "0.5 to 5"}, {"smiles": "N#Cc1ccc(NS(=O)(=O)c2c[nH]c(-c3cccnc3F)c2)c(F)c1", "note": "[Cpd 105, N-(4-cyano-2-fluoro-phenyl)-5-(2-fluoro-3-pyridyl)-1H-pyrrole-3-sulfonamide]", "IC50": "0.5 to 5"}, {"smiles": "O=S(=O)(Nc1cc(F)c(C(F)(F)F)cc1F)c1c[nH]c(-c2nccs2)c1", "note": "[Cpd 339, N-[2,5-difluoro-4-(trifluoromethyl)phenyl]-5-thiazol-2-yl-1H-pyrrole-3-sulfonamide]", "IC50": "< 0.5"}, {"smiles": "Cc1cc(F)cnc1-c1cc(S(=O)(=O)Nc2ccc(C#N)cc2F)c[nH]1", "note": "[Cpd 577, N-(4-cyano-2-fluorophenyl)-5-(5-fluoro-3-methylpyridin-2-yl)-1H-pyrrole-3-sulfonamide]", "IC50": "< 0.5"}, {"smiles": "N#Cc1cc(F)c(NS(=O)(=O)c2c[nH]c(-c3cscn3)c2)cc1F", "note": "[Cpd 642, N-(4-cyano-2,5-difluorophenyl)-5-(1,3-thiazol-4-yl)-1H-pyrrole-3-sulfonamide]", "IC50": "< 0.5"}, {"smiles": "N#Cc1ccc(NS(=O)(=O)c2c[nH]c(C3CCC3)c2)c(F)c1", "note": "[Cpd 098, N-(4-cyano-2-fluorophenyl)-5-cyclobutyl-1H-pyrrole-3-sulfonamide]", "IC50": "0.5 to 5"}, {"smiles": "N#CCOc1cc(F)c(NS(=O)(=O)c2c[nH]cc2-c2cccc(F)c2)cc1F", "note": "[Cpd 466, N-[4-(cyanomethoxy)-2,5-difluorophenyl]-4-(3-fluorophenyl)-1H-pyrrole-3-sulfonamide]", "IC50": "0.5 to 5"}, {"smiles": "Cc1ncc(-c2cc(S(=O)(=O)Nc3cc(F)c(C(F)(F)F)cc3F)c[nH]2)s1", "note": "[Cpd 538, N-[2,5-difluoro-4-(trifluoromethyl)phenyl]-5-(2-methyl-1,3-thiazol-5-yl)-1H-pyrrole-3-sulfonamide]", "IC50": "0.5 to 5"}, {"smiles": "N#Cc1cc(F)c(NS(=O)(=O)c2c[nH]c(-c3ccsn3)c2)cc1F", "note": "[Cpd 646, N-(4-cyano-2,5-difluorophenyl)-5-(1,2-thiazol-3-yl)-1H-pyrrole-3-sulfonamide]", "IC50": "< 0.5"}, {"smiles": "O=S(=O)(Nc1nc(F)c(OCCF)cc1F)c1c[nH]c(-c2nccs2)c1", "note": "[Cpd 665, N-[3,6-difluoro-5-(2-fluoroethoxy)pyridin-2-yl]-5-(1,3-thiazol-2-yl)-1H-pyrrole-3-sulfonamide]", "IC50": "< 0.5"}, {"smiles": "N#Cc1ccc(NS(=O)(=O)c2c[nH]c(-c3cc(F)ccc3F)c2)c(F)c1", "note": "[Cpd 041, N-(4-cyano-2-fluoro-phenyl)-5-(2,5-difluorophenyl)-1H-pyrrole-3-sulfonamide]", "IC50": "< 0.5"}, {"smiles": "N#Cc1cc(F)c(NS(=O)(=O)c2c[nH]c(-c3cccc4c(C(F)(F)F)coc34)c2)cc1F", "note": "[Cpd 663, N-(4-cyano-2,5-difluorophenyl)-5-[3-(trifluoromethyl)-1-benzofuran-7-yl]-1H-pyrrole-3-sulfonamide]", "IC50": "0.5 to 5"}, {"smiles": "O=S(=O)(Nc1cc(F)c(C(F)(F)F)cc1F)c1c[nH]c(-c2ccc3cccnn23)c1", "note": "[Cpd 567, N-[2,5-difluoro-4-(trifluoromethyl)phenyl]-5-pyrrolo[1,2-b]pyridazin-7-yl-1H-pyrrole-3-sulfonamide]", "IC50": "< 0.5"}, {"smiles": "[2H]c1ccc(-c2cc(S(=O)(=O)Nc3ccc(C#N)cc3F)c[nH]2)cc1", "note": "[Cpd 612, N-(4-cyano-2-fluorophenyl)-5-(4-deuteriophenyl)-1H-pyrrole-3-sulfonamide]", "IC50": "< 0.5"}, {"smiles": "N#Cc1cc(F)c(NS(=O)(=O)c2c[nH]c(-c3cccc4ccsc34)c2)cc1F", "note": "[Cpd 572, 5-(1-benzothiophen-7-yl)-N-(4-cyano-2,5-difluorophenyl)-1H-pyrrole-3-sulfonamide]", "IC50": "< 0.5"}, {"smiles": "N#CCOc1cc(F)c(NS(=O)(=O)c2c[nH]cc2Cc2ccccc2)cc1F", "note": "[Cpd 415, 4-benzyl-N-[4-(cyanomethoxy)-2,5-difluorophenyl]-1H-pyrrole-3-sulfonamide]", "IC50": "0.5 to 5"}, {"smiles": "O=S(=O)(Nc1cc(F)c(OC(F)F)cc1F)c1c[nH]c(-c2cccc3cccnc23)c1", "note": "[Cpd 552, N-[4-(difluoromethoxy)-2,5-difluorophenyl]-5-quinolin-8-yl-1H-pyrrole-3-sulfonamide]", "IC50": "0.5 to 5"}, {"smiles": "N#Cc1cc(F)c(NS(=O)(=O)c2c[nH]c(-c3cc(Cl)c(F)cc3F)c2)cc1Cl", "note": "[Cpd 470, 5-(5-chloro-2,4-difluorophenyl)-N-(5-chloro-4-cyano-2-fluorophenyl)-1H-pyrrole-3-sulfonamide]", "IC50": "0.5 to 5"}]}]}
